{
  "source": "patent US5013722A",
  "about": "“Cholecystokinin analogs for controlling appetite” (Hoffmann-LaRoche Inc., priority 1989, dated 1991)",
  "key": {"[1]": {"test_system": "Male Sprague-Dawley (CD) rats, food intake", "assay": "Two-meal feeding assay, intraperitoneal administration", "assay_type": "in vivo, rat", "method": "Male Sprague-Dawley (CD) rats weighing 180-200 grams (Charles River Breeding Laboratories) were acclimated to a 12 h light/dark cycle (6 a.m. to 6 p.m.) in a room kept at 22° C. They were subsequently fasted for two days, weighed, placed in individual cages, and a four-day period of meal training was begun. During this time the rats were given ground laboratory chow (Purina Lab Chow) in jars for one hour from 9:00 a.m. until 10:00 a.m., the jars were removed from 10:00 a.m. to 12:00 p.m., and placed back in the cages from 12:00 until 1:00 p.m. Under this `1-2-1` meal feeding regime most rats learn to eat approximately as much Per day during the two hours they have access to food as rats which have food ad libitum over the entire 24-hour day. On the fourth day, the rats were weighed again, and any which lost more than five grams body weight were excluded from the test. The animals were then distributed into experimental (n=5 to 6) and control groups (n=6-12). but not matched for body weight.\nPeptides of the invention were suspended either in saline. if soluble, or in 1% gum arabic, if insoluble, at concentrations of 0 to 320 μg/ml/kg body weight and were administered intraperitonerally 15 min before the first meal on day 5 of meal feeding. The rats were then given their meals as they had been during the previous four days, and the food cups were weighed both before and after each meal to determine food consumption. Food intake was expressed as a mean and standard error of the mean in grams consumed or as a percent of control values for the various groups. The treated groups were compared to the control groups by t-test analysis. […]"}, "[2]": {"target": "T1, receptors in bovine striatum (3H-CCK-8-(SO3 H) binding, central receptor) (Bos taurus, UniProt P79266)", "T1 construct": "receptors in homogenized preparations of rat pancreatic cells and bovine striata; from tissue; host or cells: bovine striatum homogenate (48,000 x g pellet)", "T1 sequence (P79266 1-454)": "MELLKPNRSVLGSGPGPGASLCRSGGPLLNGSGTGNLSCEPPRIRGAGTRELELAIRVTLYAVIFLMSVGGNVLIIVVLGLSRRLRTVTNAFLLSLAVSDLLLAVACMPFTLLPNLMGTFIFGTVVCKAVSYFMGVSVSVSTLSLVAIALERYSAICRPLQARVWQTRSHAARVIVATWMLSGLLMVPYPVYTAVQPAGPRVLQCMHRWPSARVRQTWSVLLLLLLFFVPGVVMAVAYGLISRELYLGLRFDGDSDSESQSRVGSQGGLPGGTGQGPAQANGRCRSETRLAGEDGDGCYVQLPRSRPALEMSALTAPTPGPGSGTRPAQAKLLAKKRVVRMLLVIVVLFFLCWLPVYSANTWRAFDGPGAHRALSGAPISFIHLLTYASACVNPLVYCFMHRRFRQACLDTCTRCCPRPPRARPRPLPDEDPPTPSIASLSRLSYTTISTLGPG", "assay": "In vitro receptor binding assay, bovine striatum homogenate, 3H-CCK-8-(SO3H) radioligand", "conditions": "0.15 nM radioligand, 30 min, 25° C.; read-out: Bovine Striatum IC50 (inhibition of specific 3H-CCK-8-(SO3H) binding)", "description": "Frozen bovine striatum (approx. 5 g) and fresh rat pancreas (approx. 5 g) cleaned of fat and extraneous tissue were homogenized in HEPES buffer #1 (10 mM HEPES+130 mM NaCl+5 mM MgCl2. pH 7.4) using 35 parts buffer per 1 part tissue on a wet weight/volume basis (approx. 175 ml). The tissue was homogenized 2 x for approx. 15 sec. at 0° C. using a Polytron homogenizer at a setting of 6. The tissue was isolated by centrifugation at 48,000 x g for 10 min. at 0° C. The resulting tissue pellet was resuspended in HEPES buffer #2 (10 mM HEPES+130 mM NaCl+5 mM MgCl2 +1 mg/L phenylmethanesulfonyl fluoride (PMSF)+200 mg/L Bacitracin): 1 part striatal tissue (original wet weight) per 80 parts buffer and 1 part pancreas tissue (original wet weight) per 70 parts buffer.\nIncubation was initiated by combining various concentrations of native CCK-8 or peptides of formula I, II and III with ^3 H-CCK-8-(SO3 H) (final conc.=0.15 nM) and tissue homogenate (striatum 0.26 mg protein in 2 ml final volume; pancreas 0.165 mg protein in 1 ml final volume). Samples were incubated for 30 min. at 25° C. and the incubation terminated by pouring the mixture onto a pre-wet Whatman GF/B filter on a Sandbeck Vacuum Filtration Manifold. The incubation tubes were washed with 2×3 ml of ice-cold HEPES Buffer #2 and the wash filtered through the GF/B filter. The filter was air dried for 10 min. and then placed in a scintillation vial with 12 ml of Beckman HP/b Ready-Solv scintillation cocktail. The vials were shaken for 2 hours and then counted using a Beckman Model 7800 liquid scintillation spectrometer. Non-specific binding was determined in the presence of 1 micromole native CCK-8 and subtracted from all samples to determine specific binding. The concentration of ^3 peptide necessary to inhibit 50% of total specific H-CCK-8-(SO3 H) binding (IC50 value) was determined by log-probit analysis."}},
  "note": "Entries after “also recorded” stand apart in the source; their conditions may differ. Where a SMILES comes first, the peptide text is derived from it. [ ]: non-standard residue; d: D form. Thr(SO3H) = C[C@@H](OS(=O)(=O)O)[C@H](N)C(=O)O; sY = N[C@@H](Cc1ccc(OS(=O)(=O)O)cc1)C(=O)O; NMeF = CN[C@@H](Cc1ccccc1)C(=O)O",
  "data": [
    {"smiles": "CSCC[C@H](NC(=O)[C@H](Cc1ccc(OS(=O)(=O)O)cc1)NC(C)=O)C(=O)NCC(=O)N[C@@H](Cc1c[nH]c2ccccc12)C(=O)N[C@@H](CCSC)C(=O)N[C@H](C(=O)N(C)[C@@H](Cc1ccccc1)C(N)=O)[C@@H](C)OS(=O)(=O)O", "note": "[Example 2, Ac-Tyr(SO3 H)-Met-Gly-Trp-Met-Thr(SO3 H)-N-methyl-Phe-NH2] (Ac-[sY]MGWM[Thr(SO3H)][NMeF]-NH2)", "values": [
      {"measurement": "Food Intake 1st Meal", "setting": "[1]; 32 microgm/Kg i.p., 15 min before first meal, mean ± SEM", "result": "8 ± 1 % of Control"},
      {"measurement": "Food Intake 2nd Meal", "setting": "[1]; 32 microgm/Kg i.p., mean ± SEM", "result": "26 ± 4 % of Control"},
      {"measurement": "Food intake suppression over dosage range compared with CCK-8 (FIG. 1)", "setting": "[1]; first meal, i.p., dosage range of FIG. 1", "result": "effectively reduced food intake during the first meal at a much lower dosage range than did CCK-8; also recorded: effectively suppresses food intake in rats at a lower dosage than does CCK-8"},
      {"measurement": "IC50", "setting": "[2]", "result": "100 to 500", "unit": "nM"}
    ]}
  ]
}
